{
  "source": "ChEMBL document CHEMBL2157933",
  "about": "“The synthesis and antituberculosis activity of 5'-nor carbocyclic uracil derivatives” (Bioorg Med Chem, 2012)",
  "key": {"[1]": {"test_system": "Mycobacterium tuberculosis", "assay": "Antibacterial activity against Mycobacterium tuberculosis H37Rv assessed as growth inhibition at 40 ug/ml by BACTEC method", "type": "functional", "conditions": "read-out: GI"}, "[2]": {"assay": "(§1) Cytotoxicity against african green monkey Vero cells after 72 hrs by MTT assay", "type": "cell-based", "conditions": "chlorocebus sabaeus, Vero cells"}, "[3]": {"test_system": "Mycobacterium tuberculosis", "assay": "Antibacterial activity against Mycobacterium tuberculosis H37Rv by BACTEC method", "type": "functional"}, "[4]": {"test_system": "Mycobacterium tuberculosis", "assay": "Antibacterial activity against Mycobacterium tuberculosis H37Rv under anaerobic condition assessed as growth inhibition at 20 ug/ml after 2 to 3 days by BACTEC method", "type": "functional, organism-based"}, "[5]": {"test_system": "Mycobacterium tuberculosis", "assay": "Antibacterial activity against Mycobacterium tuberculosis H37Rv assessed as growth inhibition at 20 ug/ml by BACTEC method", "type": "functional", "conditions": "read-out: GI"}, "[6]": {"test_system": "Mycobacterium tuberculosis", "assay": "Antibacterial activity against Mycobacterium tuberculosis H37Rv assessed as growth inhibition at 20 to 40 ug/ml by BACTEC method", "type": "functional"}, "[7]": {"test_system": "Mycobacterium tuberculosis", "assay": "Antibacterial activity against Mycobacterium tuberculosis H37Rv under anaerobic condition assessed as growth inhibition at 10 ug/ml by BACTEC method", "type": "functional", "conditions": "read-out: GI"}, "[8]": {"test_system": "Mycobacterium tuberculosis", "assay": "Antibacterial activity against Mycobacterium tuberculosis H37Rv under anaerobic condition assessed as growth inhibition at 20 ug/ml by BACTEC method", "type": "functional", "conditions": "read-out: GI"}, "[9]": {"test_system": "Mycobacterium tuberculosis", "assay": "Antibacterial activity against Mycobacterium tuberculosis H37Rv assessed as growth inhibition at 10 ug/ml by BACTEC method", "type": "functional", "conditions": "read-out: GI"}, "Vero": {"test_system": "Vero", "assay": "as §1", "type": "cell-based", "conditions": "chlorocebus sabaeus, vero, 72 h"}, "[10]": {"test_system": "Mycobacterium tuberculosis", "assay": "Antibacterial activity against Mycobacterium tuberculosis H37Rv under anaerobic condition assessed as growth inhibition at 10 to 20 ug/ml by BACTEC method", "type": "functional"}, "[11]": {"test_system": "Mycobacterium tuberculosis", "assay": "Antibacterial activity against Mycobacterium tuberculosis H37Rv under anaerobic condition by BACTEC method", "type": "functional"}, "[12]": {"test_system": "Mycobacterium tuberculosis", "assay": "Antibacterial activity against Mycobacterium tuberculosis H37Rv under anaerobic condition assessed as growth inhibition at 5 ug/ml by BACTEC method", "type": "functional"}, "[13]": {"test_system": "Mycobacterium tuberculosis", "assay": "Antibacterial activity against Mycobacterium tuberculosis H37Rv under anaerobic condition assessed as growth inhibition at 0.1 ug/ml by BACTEC method", "type": "functional", "conditions": "read-out: GI"}, "[14]": {"test_system": "Mycobacterium tuberculosis", "assay": "Antibacterial activity against Mycobacterium tuberculosis H37Rv under anaerobic condition assessed as growth inhibition at 2 ug/ml by BACTEC method", "type": "functional", "conditions": "read-out: GI"}, "[15]": {"test_system": "Mycobacterium tuberculosis", "assay": "Antibacterial activity against Mycobacterium tuberculosis H37Rv under anaerobic condition assessed as growth inhibition at 100 ug/ml by BACTEC method", "type": "functional", "conditions": "read-out: GI"}, "[16]": {"test_system": "Mycobacterium tuberculosis", "assay": "Antibacterial activity against Mycobacterium tuberculosis H37Rv under anaerobic condition assessed as growth inhibition at 1 ug/ml by BACTEC method", "type": "functional", "conditions": "read-out: GI"}, "[17]": {"test_system": "Mycobacterium tuberculosis", "assay": "Antibacterial activity against Mycobacterium tuberculosis H37Rv assessed as growth inhibition at 1 ug/ml by BACTEC method", "type": "functional", "conditions": "read-out: GI"}, "[18]": {"conditions": "Mycobacterium tuberculosis, H37Rv, read-out: MIC99"}},
  "note": "Activity calls are given as the source filed them. The rule behind the calls is not given here.",
  "data": [
    {"smiles": "O=c1ccn(C2C=CC(O)C2)c(=O)[nH]1", "note": "(racemic)", "values": [
      {"measurement": "inhibition of growth at 40 µg/mL", "setting": "[1]", "result": 75, "unit": "%"},
      {"measurement": "CC50 at 72 h", "setting": "[2]", "result": "> 200", "unit": "µg/mL"},
      {"measurement": "MIC99", "setting": "[3]", "result": "> 40", "unit": "µg/mL"}
    ]},
    {"smiles": "Cc1cc(=O)[nH]c(=O)n1C1C=CC(O)C1", "note": "(racemic)", "values": [
      {"measurement": "inhibition of growth at 40 µg/mL", "setting": "[1]", "result": 100, "unit": "%"},
      {"measurement": "CC50 at 72 h", "setting": "[2]", "result": "> 200", "unit": "µg/mL"},
      {"measurement": "growth inhibition (GI)", "setting": "[4]", "result": "inactive"},
      {"measurement": "MIC99", "setting": "[3]", "result": 40, "unit": "µg/mL"}
    ]},
    {"smiles": "O=c1[nH]c(=O)n(C2C=CC(O)C2)cc1I", "note": "(racemic)", "values": [
      {"measurement": "inhibition of growth at 40 µg/mL", "setting": "[1]", "result": 100, "unit": "%"},
      {"measurement": "inhibition of growth at 20 µg/mL", "setting": "[5]", "result": 99, "unit": "%"},
      {"measurement": "CC50 at 72 h", "setting": "[2]", "result": "> 200", "unit": "µg/mL"},
      {"measurement": "MIC99", "setting": "[3]", "result": 20, "unit": "µg/mL"}
    ]},
    {"smiles": "CCCCCCCCC#Cc1cn(C2C=CC(O)C2)c(=O)[nH]c1=O", "note": "(racemic)", "values": [
      {"measurement": "inhibition of growth at 40 µg/mL", "setting": "[1]", "result": 100, "unit": "%"},
      {"measurement": "CC50 at 72 h", "setting": "[2]", "result": "> 125", "unit": "µg/mL"},
      {"measurement": "growth inhibition (GI)", "setting": "[4]", "result": "inactive"},
      {"measurement": "MIC99", "setting": "[3]", "result": 40, "unit": "µg/mL"}
    ]},
    {"smiles": "CCCCCCCCCCC#Cc1cn(C2C=CC(O)C2)c(=O)[nH]c1=O", "note": "(racemic)", "values": [
      {"measurement": "CC50 at 72 h", "setting": "[2]", "result": "> 125", "unit": "µg/mL"},
      {"measurement": "MIC99", "setting": "[3]", "result": 20, "unit": "µg/mL"},
      {"measurement": "growth inhibition (GI)", "setting": "[6]", "result": 99, "unit": "%"}
    ]},
    {"smiles": "CCCCCCCCCCCCC#Cc1cn(C2C=CC(O)C2)c(=O)[nH]c1=O", "note": "(racemic)", "values": [
      {"measurement": "inhibition of growth at 10 µg/mL", "setting": "[7]", "result": 99, "unit": "%"},
      {"measurement": "inhibition of growth at 20 µg/mL", "setting": "[8]", "result": 100, "unit": "%"},
      {"measurement": "inhibition of growth at 10 µg/mL", "setting": "[9]", "result": 99, "unit": "%"},
      {"measurement": "CC50", "setting": "Vero", "result": 125, "unit": "µg/mL"},
      {"measurement": "MIC99", "setting": "[3]", "result": 10, "unit": "µg/mL"},
      {"measurement": "growth inhibition (GI)", "setting": "[6]", "result": 100, "unit": "%"}
    ]},
    {"smiles": "CCCCCCCCCCCCC#Cc1cn(C2C=CC(O)C2)c(=O)[nH]c1=O", "note": "(single isomer, unassigned; (-))", "values": [
      {"measurement": "growth inhibition (GI)", "setting": "[10]", "result": 100, "unit": "%"},
      {"measurement": "CC50 at 72 h", "setting": "[2]", "result": "> 100", "unit": "µg/mL"},
      {"measurement": "MIC99", "setting": "[11]; [18]", "result": 5, "unit": "µg/mL"},
      {"measurement": "growth inhibition (GI)", "setting": "[12]", "result": 99, "unit": "%"}
    ]},
    {"smiles": "CCCCCCCCCCCCC#Cc1cn(C2C=CC(O)C2)c(=O)[nH]c1=O", "note": "(stereo in doubt; (+)6)", "values": [
      {"measurement": "MIC99", "setting": "[11]", "result": 10, "unit": "µg/mL"},
      {"measurement": "growth inhibition (GI)", "setting": "[12]", "result": 25, "unit": "%"}
    ]},
    {"smiles": "CC[C@@H](CO)NCCN[C@@H](CC)CO", "note": "[ETHAMBUTOL]", "values": [
      {"measurement": "MIC99", "setting": "[11]; [18]", "result": 5, "unit": "µg/mL"},
      {"measurement": "inhibition of growth at 5 µg/mL", "setting": "[12]; Mycobacterium tuberculosis, H37Rv, read-out: GI", "result": 100, "unit": "%"}
    ]},
    {"smiles": "NNC(=O)c1ccncc1", "note": "[ISONIAZID]", "values": [
      {"measurement": "inhibition of growth at 0.1 µg/mL", "setting": "[13]", "result": 100, "unit": "%"},
      {"measurement": "MIC99", "setting": "[11]; [18]", "result": 0.1, "unit": "µg/mL"}
    ]},
    {"smiles": "CC1COc2c(N3CCN(C)CC3)c(F)cc3c(=O)c(C(=O)O)cn1c23", "note": "(stereo not given) [OFLOXACIN]", "values": [
      {"measurement": "inhibition of growth at 2 µg/mL", "setting": "[14]", "result": 100, "unit": "%"},
      {"measurement": "MIC99", "setting": "[11]; [18]", "result": 2, "unit": "µg/mL"}
    ]},
    {"smiles": "NC(=O)c1cnccn1", "note": "[PYRAZINAMIDE]", "values": [
      {"measurement": "inhibition of growth at 100 µg/mL", "setting": "[15]", "result": 100, "unit": "%"},
      {"measurement": "MIC99", "setting": "[11]; [18]", "result": 100, "unit": "µg/mL"}
    ]},
    {"smiles": "CO[C@H]1/C=C/O[C@@]2(C)Oc3c(C)c(O)c4c(O)c(c(/C=N/N5CCN(C)CC5)c(O)c4c3C2=O)NC(=O)/C(C)=C\\C=C\\[C@H](C)[C@H](O)[C@@H](C)[C@@H](O)[C@@H](C)[C@H](OC(C)=O)[C@@H]1C", "note": "[RIFAMPIN]", "values": [
      {"measurement": "inhibition of growth at 1 µg/mL", "setting": "[16]", "result": 100, "unit": "%"},
      {"measurement": "CC50 at 72 h", "setting": "[2]", "result": "> 500", "unit": "µg/mL"},
      {"measurement": "MIC99", "setting": "[11]; [18]", "result": 1, "unit": "µg/mL"},
      {"measurement": "MIC99", "setting": "[3]", "result": 1, "unit": "µg/mL"},
      {"measurement": "inhibition of growth at 1 µg/mL", "setting": "[17]", "result": 100, "unit": "%"}
    ]},
    {"smiles": "CN[C@@H]1[C@H](O[C@H]2[C@H](O[C@H]3[C@H](O)[C@@H](O)[C@H](N=C(N)N)[C@@H](O)[C@@H]3N=C(N)N)O[C@@H](C)[C@]2(O)C=O)O[C@@H](CO)[C@H](O)[C@H]1O", "note": "[STREPTOMYCIN]", "values": [
      {"measurement": "inhibition of growth at 0.1 µg/mL", "setting": "[13]", "result": 100, "unit": "%"},
      {"measurement": "MIC99", "setting": "[11]; [18]", "result": 0.1, "unit": "µg/mL"}
    ]}
  ]
}
